For assay [1], the target named is T1, DNA polymerase theta (Homo sapiens, UniProt O75417). Kind of assay: Inhibition of POLQ PD (unknown origin) (1819 to 2590 residues) by fluorescence based analysis.
The target in assay [2] is T1, DNA polymerase theta. As to the kind of experiment: Inhibition of POLQ (unknown origin). Format: single protein.
Assay [3] deals with T1, DNA polymerase theta. As to the kind of experiment: Inhibition of POLQ (unknown origin) incubated for 15 mins in presence of ATP and NADPH by absorbance based analysis.
Assay [4] deals with T1, DNA polymerase theta. As to the kind of experiment: Inhibition of N-terminal/C-termianl Flag-tagged POLQ (unknown origin) (2 to 2590 residues) expressed in baculovirus incubated for 30 mins by fluorescence based analysis.
Assay [5] relates to TERT-RPE1. As to the kind of experiment: Antiproliferative activity against human RPE-1 cells expressing wild type BRCA1 assessed as inhibition of cell growth by CellTiter-Glo assay. It counts as functional, cell-based. For orientation: ATP-based viability assays read luminescence as a measure of living cells.
The subject of a further assay is HCT-116. Kind of assay: Antiproliferative activity against human HCT-116 cells assessed as inhibition of cell growth incubated for 6 days by CellTiter-Glo assay. It counts as functional, cell-based. The following applies: HCT-116, 144 h.
Assay [6] in a line: Antiproliferative activity against human MDA-1986 cells assessed as inhibition of cell growth incubated for 6 days by CellTiter-Glo assay. The following applies: MDA1986, 144 h. Format: functional, cell-based.
The next assay has as its system A549. Kind of assay: Antiproliferative activity against human A549 cells assessed as inhibition of cell growth incubated for 6 days by CellTiter-Glo assay. It counts as functional, cell-based. The following applies: A549, 144 h.
In assay [7] the target is T1, DNA polymerase theta. Kind of assay: Inhibition of POLQ (unknown origin) (1 to 987 residues) using […] as substrate incubated for 30 mins in presence of ATP relative to control.
In the next assay the test system is MCF7. Kind of assay: Antiproliferative activity against human MCF7 cells assessed as inhibition of cell growth incubated for 6 days by CellTiter-Glo assay. The following applies: MCF7, 144 h. Format: functional, cell-based.
The next assay has as its system PC-3. As to the kind of experiment: Antiproliferative activity against human PC-3 cells assessed as inhibition of cell growth incubated for 6 days by CellTiter-Glo assay. Format: functional, cell-based. Conditions: PC-3, 144 h.
Assay [8] relates to TERT-RPE1. As to the kind of experiment: Antiproliferative activity against BRCA1 knockout human RPE-1 cells assessed as inhibition of cell growth by CellTiter-Glo assay. Format: functional, cell-based.
Assay [9] deals with T1, DNA polymerase theta. Kind of assay: Inhibition of POLQ PD (unknown origin) (1819 to 2590 residues) incubated for 15 mins by fluorescence based analysis.
Assay [10] deals with T1, DNA polymerase theta. Kind of assay: Inhibition of POLQ PD (unknown origin) (1819 to 2590 residues) incubated for 15 mins by luminescence based analysis.
The test system of a further assay is TOV21G. Kind of assay: Antiproliferative activity against HR knockout human TOV-21G cells assessed as fold change in olaparib IC50 by CellTiter-Glo assay. It counts as functional.
Assay [11] relates to TERT-RPE1. Kind of assay: Antiproliferative activity against P53 knockout human RPE-1 cells assessed as inhibition of cell growth by CellTiter-Glo assay. It counts as functional, cell-based.
For assay [12], the system named is TERT-RPE1. Kind of assay: Antiproliferative activity against BRCA1 knockout human RPE-1 cells assessed as fold change in rucaparib IC50 by CellTiter-Glo assay. Format: functional.
The subject of assay [13] is TERT-RPE1. Kind of assay: Antiproliferative activity against P53 and BRCA1 knockout human RPE-1 cells assessed as inhibition of cell growth by CellTiter-Glo assay. Format: functional, cell-based.

Each structure is given as a SMILES string. pIC50: −log10 of the molar value. Bounds are passed on as bounds.

As a reminder, the pIC50 is −log10 of the IC50, conventionally taken in molar units. For orientation: inhibition means the relative decrease from the control value, in per cent.

T1 sequence (O75417 whole entry, the tested form may be a part): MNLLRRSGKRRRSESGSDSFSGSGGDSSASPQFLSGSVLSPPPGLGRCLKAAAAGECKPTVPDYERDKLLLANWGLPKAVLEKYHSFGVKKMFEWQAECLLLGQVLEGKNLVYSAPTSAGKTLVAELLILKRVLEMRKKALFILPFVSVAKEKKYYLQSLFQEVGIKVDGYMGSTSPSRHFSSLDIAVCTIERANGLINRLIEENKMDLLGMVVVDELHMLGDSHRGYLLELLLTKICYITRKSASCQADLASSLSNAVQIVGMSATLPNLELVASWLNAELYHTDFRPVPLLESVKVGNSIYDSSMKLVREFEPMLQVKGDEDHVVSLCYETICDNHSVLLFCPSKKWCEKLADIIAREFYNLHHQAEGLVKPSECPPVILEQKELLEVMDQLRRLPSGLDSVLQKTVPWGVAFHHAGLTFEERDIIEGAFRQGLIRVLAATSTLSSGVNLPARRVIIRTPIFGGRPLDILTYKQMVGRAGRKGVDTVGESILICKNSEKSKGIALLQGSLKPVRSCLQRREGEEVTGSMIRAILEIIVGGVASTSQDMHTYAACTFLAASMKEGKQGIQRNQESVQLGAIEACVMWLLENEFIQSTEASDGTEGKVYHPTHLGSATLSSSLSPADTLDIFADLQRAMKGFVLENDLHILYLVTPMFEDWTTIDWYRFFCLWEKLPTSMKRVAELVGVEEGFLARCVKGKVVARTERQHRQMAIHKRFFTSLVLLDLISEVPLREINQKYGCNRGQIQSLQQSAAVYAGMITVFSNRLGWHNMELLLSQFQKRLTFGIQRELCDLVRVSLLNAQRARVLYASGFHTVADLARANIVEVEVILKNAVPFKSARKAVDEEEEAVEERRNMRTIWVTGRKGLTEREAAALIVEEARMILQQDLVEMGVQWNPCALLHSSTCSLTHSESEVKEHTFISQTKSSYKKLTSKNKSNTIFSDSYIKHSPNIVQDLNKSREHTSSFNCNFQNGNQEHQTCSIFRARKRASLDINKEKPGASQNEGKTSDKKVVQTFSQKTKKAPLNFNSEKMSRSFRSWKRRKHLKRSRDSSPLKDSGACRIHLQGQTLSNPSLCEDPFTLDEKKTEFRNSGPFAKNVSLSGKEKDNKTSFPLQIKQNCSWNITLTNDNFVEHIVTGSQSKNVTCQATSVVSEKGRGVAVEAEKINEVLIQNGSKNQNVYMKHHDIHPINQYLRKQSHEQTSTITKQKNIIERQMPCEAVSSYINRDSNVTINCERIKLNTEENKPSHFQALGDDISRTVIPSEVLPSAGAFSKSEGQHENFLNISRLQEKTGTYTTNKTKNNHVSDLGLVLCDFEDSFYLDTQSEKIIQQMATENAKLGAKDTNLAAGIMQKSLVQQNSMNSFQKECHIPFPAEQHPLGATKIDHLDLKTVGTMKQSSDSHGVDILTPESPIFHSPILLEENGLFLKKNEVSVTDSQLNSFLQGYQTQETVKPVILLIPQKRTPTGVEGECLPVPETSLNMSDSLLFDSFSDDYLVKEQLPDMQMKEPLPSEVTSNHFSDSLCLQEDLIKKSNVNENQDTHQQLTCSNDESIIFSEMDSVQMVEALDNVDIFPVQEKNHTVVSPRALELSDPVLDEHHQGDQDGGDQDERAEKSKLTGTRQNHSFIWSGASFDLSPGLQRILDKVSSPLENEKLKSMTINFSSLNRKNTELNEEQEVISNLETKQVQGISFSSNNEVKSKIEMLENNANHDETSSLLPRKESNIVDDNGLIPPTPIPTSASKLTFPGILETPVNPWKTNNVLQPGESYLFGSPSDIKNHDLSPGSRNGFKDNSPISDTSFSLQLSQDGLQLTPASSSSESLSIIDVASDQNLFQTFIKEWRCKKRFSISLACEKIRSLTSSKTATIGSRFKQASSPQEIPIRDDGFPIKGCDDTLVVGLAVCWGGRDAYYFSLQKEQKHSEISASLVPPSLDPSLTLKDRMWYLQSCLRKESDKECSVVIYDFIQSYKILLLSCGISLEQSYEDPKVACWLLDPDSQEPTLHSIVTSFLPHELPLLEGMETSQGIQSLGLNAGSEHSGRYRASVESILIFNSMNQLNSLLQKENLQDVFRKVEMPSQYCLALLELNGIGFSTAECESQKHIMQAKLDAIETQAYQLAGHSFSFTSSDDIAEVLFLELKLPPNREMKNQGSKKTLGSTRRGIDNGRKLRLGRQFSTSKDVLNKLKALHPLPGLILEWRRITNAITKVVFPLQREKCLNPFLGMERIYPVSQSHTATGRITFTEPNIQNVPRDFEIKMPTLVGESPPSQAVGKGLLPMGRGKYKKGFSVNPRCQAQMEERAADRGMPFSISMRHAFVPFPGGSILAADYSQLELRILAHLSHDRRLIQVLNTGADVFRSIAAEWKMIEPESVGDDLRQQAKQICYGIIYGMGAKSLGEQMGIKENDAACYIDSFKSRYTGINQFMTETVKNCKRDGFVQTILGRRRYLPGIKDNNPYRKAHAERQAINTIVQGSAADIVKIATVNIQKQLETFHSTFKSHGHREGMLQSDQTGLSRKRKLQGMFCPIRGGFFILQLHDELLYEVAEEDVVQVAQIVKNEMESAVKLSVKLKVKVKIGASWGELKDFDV

Take `CN(C(=O)CNc1nc(C(F)(F)F)cc(C(F)(F)F)c1C#N)c1ccc(F)cc1`: the pIC50 at DNA polymerase theta [1] is > 6.70.

With `Cc1nc(NCC(=O)N(C)c2ccccc2)c(C#N)c(C)c1Cl`, on DNA polymerase theta [2], the pIC50 was > 6.70.

`COc1ccccc1-c1cc(C)ncc1C(=O)Nc1nnc(OCc2ccc(Cl)cn2)s1`: the pIC50 at DNA polymerase theta [3] is ≥ 6.70.

Consider `Cc1cc(-c2nc(NC(=O)N[C@H]3CCCNC3)cs2)ccc1OC[C@]1(C)CCOC1`, for which the pIC50 against DNA polymerase theta [4] was 8.15.

Turning to `Cc1cccc(N(C)C(=O)[C@@H]2CCCN2c2nc(C)cc(C(F)(F)F)c2C#N)c1`, the pIC50 against DNA polymerase theta [2] is > 6.70.

`CN(C(=O)[C@@H]1CCCN1c1cc(C(F)(F)F)ccn1)c1ccc(F)cc1`: the pIC50 at DNA polymerase theta [2] is > 6.70.

`Cc1c(OC2CCN(C)CC2)ccc2cc(NC(=O)Nc3ccc(C(F)(F)F)cc3)c(=O)oc12`: the pIC50 was 6.35 in the assay on TERT-RPE1 [5]; 6.10 in the assay with HCT-116; 6.05 in assay [6]; 6.89 in the assay with A549; 6.34 in the assay on MCF7; 7.22 with PC-3. Also, in the assay on TERT-RPE1 [8], the pIC50 is 6.80. Moreover, the inhibition on DNA polymerase theta [7] was determined as 50%.

For `N#Cc1c(C(F)(F)F)cc(C(F)(F)F)nc1NCc1nccn1-c1ccc(F)cc1`, the pIC50 against DNA polymerase theta [1] is > 6.70.

Regarding `Cc1ccc(NC(=O)Nc2cncc(-c3ccc(OCC4(C)CCOC4)c(C)c3)n2)cn1` (centres undefined), the pIC50 against DNA polymerase theta [4] is 8.70.

As to `Cc1cc(C(F)(F)F)cc(N2C(=O)OC[C@H]2c2nc(Cl)cn2-c2ccc(F)c(Cl)c2)n1`, on DNA polymerase theta [9], the pIC50 was 8.30.

Regarding `Cc1nc(NCc2nccn2-c2ccccc2)c(C#N)c(C)c1Cl`, the pIC50 at DNA polymerase theta [2] was > 6.70.

Consider `Cc1nc(SCC(=O)N(C)c2ccccc2)c(C#N)c(C)c1Cl`, for which the pIC50 against DNA polymerase theta [10] and at DNA polymerase theta [9] was 6.70 in each case.

For the compound `COc1cccc(-c2cc(C(=O)N[C@H]3CC[C@H](c4ccc(OC5CCNCC5)cc4)CC3)ccc2OC)c1`, at DNA polymerase theta [7], the inhibition worked out at 70%.

Consider `COc1cnc(Cl)cc1-c1cc(C)ncc1C(=O)Nc1nnc(OCc2ccc(Cl)cn2)s1`, for which the pIC50 at DNA polymerase theta [3] is ≥ 6.70.

As to `CN(C(=O)[C@@H]1CCCN1c1cc(C(F)(F)F)cc(C(F)(F)F)n1)c1ccc(F)cc1`, the pIC50 against DNA polymerase theta [10] and against DNA polymerase theta [9] was ≥ 6.70 in each case.

With `CO[C@@H]1[C@@H](OC(N)=O)[C@@H](O)[C@H](Oc2ccc3c(O)c(NC(=O)c4ccc(O)c(CC=C(C)C)c4)c(=O)oc3c2C)OC1(C)C` [NOVOBIOCIN], the “fold change (FC)” value in the assay with TOV21G was 40; with TERT-RPE1 [12] it was 20. Moreover, the pIC50 with TERT-RPE1 [11] is 3.45; in the assay with TERT-RPE1 [13], 4.01; in the assay with TERT-RPE1 [8] it was 4.07.

Source of the values: ChEMBL document CHEMBL5338761 (J Med Chem, 2023).
